Measured values: US20230014151A1, “COMBINATION ANTIVIRAL THERAPY FOR MEASLES” (The Trustees of Columbia University in the City of New York, priority 2019, published 2023)
“Also recorded” adds a separate entry of the source. Like-named read-outs stand apart in the source and are kept apart here. Numbered stars: 1 amine (or outer) side, 2 acyl side, 3 side chain; on linkers, the order of the positions; unused ones are H or OH. Bridge positions count the residues as written; N and C are the ends. Square brackets hold non-standard residues; d marks the D form. Ends that are not written are not given here. I, II: the chains in the order shown. * marks the point of attachment. X1 = CC(C)CCC[C@@H](C)[C@H]1CC[C@H]2[C@@H]3CC=C4C[C@@H](OCCN(CCNC(=O)CCOCCOCCOCCOCCNC(=O)CCCN5C(=O)CC([*:1])C5=O)CCNC(=O)CCOCCOCCOCCOCCNC(=O)CCCN5C(=O)CC([*:2])C5=O)CC[C@]4(C)[C@H]3CC[C@]12C; Cbz = O=C(OCc1ccccc1)*

Experiments:
[1] = system: vesicular stomatitis virus (VSV); conditions: 16 h
soluble MeV F [2] = format: biochemical, measles virus
soluble MeV F [3] = biological target: T1, soluble MeV F (Measles virus, UniProt Q786F3); format: biochemical; conditions: peptide in culture medium, supernatant 24 hours post transfection
T1 construct: produced in a soluble form, with the ablation of the intracytoplasmic and transmembrane domains; Tobacco Etch Virus protease site (C); foldomer (trimerization) domain (C); 6xHis (C); made in house; host or cells: 293T (culture supernatant)

[4] = biological target: viral glycoproteins (H and F); CD150; experiment: beta-galactosidase complementation-based fusion assay, CD150 target cells
[5] = biological target: viral glycoproteins (H and F); Nectin-4 (Measles virus, UniProt Q786F3); experiment: beta-galactosidase complementation-based fusion assay, Nectin-4 target cells
Sequence of viral glycoproteins (H and F); Nectin-4 (Q786F3 24-112): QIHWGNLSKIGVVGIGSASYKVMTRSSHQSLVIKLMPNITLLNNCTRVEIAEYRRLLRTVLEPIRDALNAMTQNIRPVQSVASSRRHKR

Sequence of viral glycoproteins (H and F); CD150 (Q786F3 24-112): as above
Sequence of viral glycoproteins (H and F); CD150 (Q786F3 113-550): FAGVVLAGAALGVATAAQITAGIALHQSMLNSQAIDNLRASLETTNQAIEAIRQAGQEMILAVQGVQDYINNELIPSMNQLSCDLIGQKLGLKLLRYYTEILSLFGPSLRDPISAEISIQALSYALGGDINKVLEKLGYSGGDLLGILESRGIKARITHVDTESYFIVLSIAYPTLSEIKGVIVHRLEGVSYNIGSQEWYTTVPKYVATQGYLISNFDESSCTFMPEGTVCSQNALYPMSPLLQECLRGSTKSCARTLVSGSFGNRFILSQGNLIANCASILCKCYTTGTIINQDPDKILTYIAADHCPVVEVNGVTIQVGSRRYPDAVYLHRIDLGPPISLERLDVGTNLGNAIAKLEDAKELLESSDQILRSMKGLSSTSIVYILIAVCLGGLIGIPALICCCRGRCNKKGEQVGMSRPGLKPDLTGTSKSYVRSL
T1 sequence (Q786F3 113-494, added parts left off): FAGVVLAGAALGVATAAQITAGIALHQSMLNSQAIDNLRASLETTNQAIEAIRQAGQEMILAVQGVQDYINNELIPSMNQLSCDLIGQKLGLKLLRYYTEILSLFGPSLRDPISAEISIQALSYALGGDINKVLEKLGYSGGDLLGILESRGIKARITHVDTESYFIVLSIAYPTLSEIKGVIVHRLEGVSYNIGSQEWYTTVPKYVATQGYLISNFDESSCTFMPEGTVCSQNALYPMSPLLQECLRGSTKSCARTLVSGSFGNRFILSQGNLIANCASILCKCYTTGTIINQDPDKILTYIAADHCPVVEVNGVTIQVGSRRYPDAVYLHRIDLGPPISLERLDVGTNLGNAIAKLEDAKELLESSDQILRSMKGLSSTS
T1 sequence (Q786F3 24-112): as the sequence (Q786F3 24-112) above

Row | Compound | IC50 [1] | stabilization of soluble F by FIP-HRC (dimer without cholesterol), FIGS. 117A-E (soluble MeV F [2]; 55° C., 1 mM peptide, compared with FIP commercial, FIP dimer, 3 g) | stabilization of soluble F proteins on heating (soluble MeV F [2]; wt, E455G, E170G E455G soluble F, 45° C. or 55° C. for 30', 1 uM peptide) | stabilization of wt soluble F in pre-fusion state (soluble MeV F [3]) | stabilization of wt soluble F in pre-fusion state (soluble MeV F [3]; listed as FIP-HRC-PEG11-dimer) | IC50 [4] | IC90 ([4]; read-out: CD150 IC90) | IC50 [5] | IC90 [5] | IC90 ([5]; read-out: Nectin4 IC90)
1 | CC[C@H](C)[C@H](NC(=O)[C@H](CC(C)C)NC(=O)[C@H](CO)NC(=O)[C@H](Cc1c[nH]cn1)NC(=O)[C@@H](NC(=O)[C@H](CC(C)C)NC(=O)[C@H](CO)NC(=O)[C@@H](NC(=O)[C@H](Cc1ccc(O)cc1)NC(=O)[C@H](CC(N)=O)NC(=O)[C@H](CC(N)=O)NC(=O)[C@@H](NC(=O)[C@H](CCC(=O)O)NC(=O)[C@H](CCCNC(=N)N)NC(=O)[C@H](CC(=O)O)NC(=O)[C@H](Cc1c[nH]c2ccccc12)NC(=O)[C@H](CCC(=O)O)NC(=O)[C@H](CCSC)NC(=O)[C@H](Cc1c[nH]c2ccccc12)NC(=O)CNC(=O)[C@H](CO)NC(=O)CNC(=O)[C@H](CO)NC(=O)CNC(=O)CNC(=O)[C@H](Cc1ccccc1)NC(=O)[C@@H](Cc1ccccc1)NC(=O)OCc1ccccc1)[C@@H](C)CC)[C@@H](C)O)[C@@H](C)CC)C(=O)N[C@@H](CCC(=O)O)C(=O)N[C@@H](CCC(=O)O)C(=O)N[C@@H](CO)C(=O)N[C@@H](CCC(N)=O)C(=O)N[C@@H](CC(N)=O)C(=O)N[C@@H](CCC(N)=O)C(=O)N[C@@H](CCC(N)=O)C(=O)N[C@@H](CCC(=O)O)C(=O)N[C@@H](CCCCN)C(=O)N[C@@H](CC(N)=O)C(=O)N[C@@H](CCC(=O)O)C(=O)N[C@@H](CCC(N)=O)C(=O)N[C@@H](CCC(=O)O)C(=O)N[C@@H](CC(C)C)C(=O)N[C@@H](CC(C)C)C(=O)NCC(=O)N[C@@H](CO)C(=O)NCC(=O)N[C@@H](CO)C(=O)NCC(=O)N[C@@H](CSC1CC(=O)N(CCCC(=O)NCCOCCOCCOCCOCCC(=O)NCCN(CCNC(=O)CCOCCOCCOCCOCCNC(=O)CCCN2C(=O)CC(SC[C@H](NC(=O)CNC(=O)[C@H](CO)NC(=O)CNC(=O)[C@H](CO)NC(=O)CNC(=O)[C@H](CC(C)C)NC(=O)[C@H](CC(C)C)NC(=O)[C@H](CCC(=O)O)NC(=O)[C@H](CCC(N)=O)NC(=O)[C@H](CCC(=O)O)NC(=O)[C@H](CC(N)=O)NC(=O)[C@H](CCCCN)NC(=O)[C@H](CCC(=O)O)NC(=O)[C@H](CCC(N)=O)NC(=O)[C@H](CCC(N)=O)NC(=O)[C@H](CC(N)=O)NC(=O)[C@H](CCC(N)=O)NC(=O)[C@H](CO)NC(=O)[C@H](CCC(=O)O)NC(=O)[C@H](CCC(=O)O)NC(=O)[C@@H](NC(=O)[C@H](CC(C)C)NC(=O)[C@H](CO)NC(=O)[C@H](Cc3c[nH]cn3)NC(=O)[C@@H](NC(=O)[C@H](CC(C)C)NC(=O)[C@H](CO)NC(=O)[C@@H](NC(=O)[C@H](Cc3ccc(O)cc3)NC(=O)[C@H](CC(N)=O)NC(=O)[C@H](CC(N)=O)NC(=O)[C@@H](NC(=O)[C@H](CCC(=O)O)NC(=O)[C@H](CCCNC(=N)N)NC(=O)[C@H](CC(=O)O)NC(=O)[C@H](Cc3c[nH]c4ccccc34)NC(=O)[C@H](CCC(=O)O)NC(=O)[C@H](CCSC)NC(=O)[C@H](Cc3c[nH]c4ccccc34)NC(=O)CNC(=O)[C@H](CO)NC(=O)CNC(=O)[C@H](CO)NC(=O)CNC(=O)CNC(=O)[C@H](Cc3ccccc3)NC(=O)[C@@H](Cc3ccccc3)NC(=O)OCc3ccccc3)[C@@H](C)CC)[C@@H](C)O)[C@@H](C)CC)[C@@H](C)CC)C(=O)O)C2=O)CCO[C@H]2CC[C@@]3(C)C(=CC[C@H]4[C@@H]5CC[C@H]([C@H](C)CCCC(C)C)[C@@]5(C)CC[C@@H]43)C2)C1=O)C(=O)O (some centres unmarked) [FIP HIV] | > 5000 nM | – | – | – | – | – | – | – | – | –
2 | CC[C@H](C)[C@H](NC(=O)[C@H](C)NC(=O)[C@H](CC(N)=O)NC(=O)CNC(=O)[C@H](CC(C)C)NC(=O)[C@H](CC(N)=O)NC(=O)[C@@H](NC(=O)CNC(=O)[C@@H](NC(=O)[C@H](CC(=O)O)NC(=O)[C@H](CC(C)C)NC(=O)[C@H](CCCNC(=N)N)NC(=O)[C@H](CCC(=O)O)NC(=O)[C@H](CC(C)C)NC(=O)[C@H](CO)NC(=O)[C@@H](NC(=O)[C@@H]1CCCN1C(=O)[C@@H]1CCCN1C(=O)CNC(=O)[C@H](CO)NC(=O)CNC(=O)[C@H](CO)NC(=O)CNC(=O)CNC(=O)[C@H](Cc1ccccc1)NC(=O)[C@@H](Cc1ccccc1)NC(=O)OCc1ccccc1)[C@@H](C)CC)C(C)C)[C@@H](C)O)C(=O)N[C@@H](C)C(=O)N[C@@H](CCCCN)C(=O)N[C@@H](CC(C)C)C(=O)N[C@@H](CCC(=O)O)C(=O)N[C@@H](CC(=O)O)C(=O)N[C@@H](C)C(=O)N[C@@H](CCCCN)C(=O)N[C@@H](CCC(=O)O)C(=O)N[C@@H](CC(C)C)C(=O)N[C@@H](CC(C)C)C(=O)N[C@@H](CCC(=O)O)C(=O)N[C@@H](CO)C(=O)N[C@@H](CO)C(=O)N[C@@H](CC(=O)O)C(=O)N[C@@H](CCC(N)=O)C(=O)N[C@H](C(=O)N[C@@H](CC(C)C)C(=O)N[C@@H](CCCNC(=N)N)C(=O)NCC(=O)N[C@@H](CO)C(=O)NCC(=O)N[C@@H](CO)C(=O)NCC(=O)N[C@@H](CSC1CC(=O)N(CCC(=O)NCCOCCOCCOCCOCCOCCOCCOCCOCCOCCOCCOCCNC(=O)CCN2C(=O)CC(SC[C@H](NC(=O)CNC(=O)[C@H](CO)NC(=O)CNC(=O)[C@H](CO)NC(=O)CNC(=O)[C@H](CCCNC(=N)N)NC(=O)[C@H](CC(C)C)NC(=O)[C@@H](NC(=O)[C@H](CCC(N)=O)NC(=O)[C@H](CC(=O)O)NC(=O)[C@H](CO)NC(=O)[C@H](CO)NC(=O)[C@H](CCC(=O)O)NC(=O)[C@H](CC(C)C)NC(=O)[C@H](CC(C)C)NC(=O)[C@H](CCC(=O)O)NC(=O)[C@H](CCCCN)NC(=O)[C@H](C)NC(=O)[C@H](CC(=O)O)NC(=O)[C@H](CCC(=O)O)NC(=O)[C@H](CC(C)C)NC(=O)[C@H](CCCCN)NC(=O)[C@H](C)NC(=O)[C@@H](NC(=O)[C@H](C)NC(=O)[C@H](CC(N)=O)NC(=O)CNC(=O)[C@H](CC(C)C)NC(=O)[C@H](CC(N)=O)NC(=O)[C@@H](NC(=O)CNC(=O)[C@@H](NC(=O)[C@H](CC(=O)O)NC(=O)[C@H](CC(C)C)NC(=O)[C@H](CCCNC(=N)N)NC(=O)[C@H](CCC(=O)O)NC(=O)[C@H](CC(C)C)NC(=O)[C@H](CO)NC(=O)[C@@H](NC(=O)[C@@H]3CCCN3C(=O)[C@@H]3CCCN3C(=O)CNC(=O)[C@H](CO)NC(=O)CNC(=O)[C@H](CO)NC(=O)CNC(=O)CNC(=O)[C@H](Cc3ccccc3)NC(=O)[C@@H](Cc3ccccc3)NC(=O)OCc3ccccc3)[C@@H](C)CC)C(C)C)[C@@H](C)O)[C@@H](C)CC)[C@@H](C)CC)C(=O)O)C2=O)C1=O)C(=O)O)[C@@H](C)CC (some centres unmarked) [[FIP-HRC450-485]2-peg11] | – | remains in its pre-fusion state incubation at 55 °C for up to two hours; also recorded: wt F is partially stabilized; also recorded: superior to commercially available stabilizer like the commercial FIP and 3 g | stabilize all the soluble F protein at both 45 °C and 55 °C | stabilize the wt soluble F | wt F protein remains in its pre-fusion state | 278 ± 229 nM | 916 ± 162 nM | 528 ± 635 nM | 1180 ± 979 nM | 1180 ± 979 nM
3 | I: Cbz-[dF]FGGSGSGVALDPIDISIVLNKIKSDLEESKEWIRRSNKILDSIGSGSGC / II: Cbz-[dF]FGGSGSGVALDPIDISIVLNKIKSDLEESKEWIRRSNKILDSIGSGSGC (linker I:50-II:50 via X1; N-terminus assumed) [FIP VI KI] | > 5000 nM | – | – | – | – | – | – | – | – | –
